Experimental data published in US20230139171A1 (SITA Information Networking Computing UK Limited, priority 2019, published 2023).

How the values were obtained:
Format in all cases: cell-based
human TLR9 = molecular target: T1, human TLR9 (Homo sapiens, UniProt Q9NR96); assay: TLR9 inhibition reporter assay (HEK-Blue cells, SEAP reporter, ODN2006 stimulation); settings: HEK-Blue cells overexpressing human TLR9, SEAP reporter, ODN2006 5 nM
T1 construct: host or cells: HEK-Blue cells
T1 sequence (Q9NR96 26-1032): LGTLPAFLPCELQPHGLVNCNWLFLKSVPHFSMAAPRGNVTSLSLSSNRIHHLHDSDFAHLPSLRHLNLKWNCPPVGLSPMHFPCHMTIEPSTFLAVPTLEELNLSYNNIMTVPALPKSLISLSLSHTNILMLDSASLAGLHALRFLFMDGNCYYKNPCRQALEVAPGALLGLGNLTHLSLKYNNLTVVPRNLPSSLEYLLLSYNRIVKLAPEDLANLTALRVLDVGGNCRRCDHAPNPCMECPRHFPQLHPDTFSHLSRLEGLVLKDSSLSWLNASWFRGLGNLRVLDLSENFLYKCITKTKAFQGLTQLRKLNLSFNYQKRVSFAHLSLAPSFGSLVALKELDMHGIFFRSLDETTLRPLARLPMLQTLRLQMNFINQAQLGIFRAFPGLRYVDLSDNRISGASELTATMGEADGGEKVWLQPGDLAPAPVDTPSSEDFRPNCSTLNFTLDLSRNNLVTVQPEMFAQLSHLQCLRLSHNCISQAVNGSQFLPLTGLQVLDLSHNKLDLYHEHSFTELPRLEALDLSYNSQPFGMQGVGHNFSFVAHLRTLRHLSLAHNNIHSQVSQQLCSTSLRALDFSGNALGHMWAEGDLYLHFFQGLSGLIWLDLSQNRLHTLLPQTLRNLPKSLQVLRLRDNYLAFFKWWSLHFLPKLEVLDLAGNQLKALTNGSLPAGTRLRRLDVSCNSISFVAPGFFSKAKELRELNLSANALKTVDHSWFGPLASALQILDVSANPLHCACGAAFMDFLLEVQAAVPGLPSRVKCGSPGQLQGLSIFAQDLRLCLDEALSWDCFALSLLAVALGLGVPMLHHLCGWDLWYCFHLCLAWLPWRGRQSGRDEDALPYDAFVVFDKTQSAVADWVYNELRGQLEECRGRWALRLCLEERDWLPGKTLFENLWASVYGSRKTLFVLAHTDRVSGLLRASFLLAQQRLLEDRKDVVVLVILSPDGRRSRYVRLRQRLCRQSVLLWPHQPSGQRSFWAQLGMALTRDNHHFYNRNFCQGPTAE
How it was run: (§1)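 Compound treatment: 30 min, RT, 0.05 nM–50 μM final. Agonist: TLR7 gardiquimod 7.5 μM; TLR8 R848 15.9 μM; TLR9 ODN2006 5 nM. Incubation 22 h, 37 °C, 5% CO2. Readout SEAP, HEK-Blue Detection.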

human TLR8 = molecular target: T2, human TLR8 (Homo sapiens, UniProt Q9NR97); assay: TLR8 inhibition reporter assay (HEK-Blue cells, SEAP reporter, R848 stimulation); settings: HEK-Blue cells overexpressing human TLR8, SEAP reporter, R848 15.9 μM; read-out: TLR8 IC50
T2 construct: host or cells: HEK-Blue cells
T2 sequence (Q9NR97 27-1041): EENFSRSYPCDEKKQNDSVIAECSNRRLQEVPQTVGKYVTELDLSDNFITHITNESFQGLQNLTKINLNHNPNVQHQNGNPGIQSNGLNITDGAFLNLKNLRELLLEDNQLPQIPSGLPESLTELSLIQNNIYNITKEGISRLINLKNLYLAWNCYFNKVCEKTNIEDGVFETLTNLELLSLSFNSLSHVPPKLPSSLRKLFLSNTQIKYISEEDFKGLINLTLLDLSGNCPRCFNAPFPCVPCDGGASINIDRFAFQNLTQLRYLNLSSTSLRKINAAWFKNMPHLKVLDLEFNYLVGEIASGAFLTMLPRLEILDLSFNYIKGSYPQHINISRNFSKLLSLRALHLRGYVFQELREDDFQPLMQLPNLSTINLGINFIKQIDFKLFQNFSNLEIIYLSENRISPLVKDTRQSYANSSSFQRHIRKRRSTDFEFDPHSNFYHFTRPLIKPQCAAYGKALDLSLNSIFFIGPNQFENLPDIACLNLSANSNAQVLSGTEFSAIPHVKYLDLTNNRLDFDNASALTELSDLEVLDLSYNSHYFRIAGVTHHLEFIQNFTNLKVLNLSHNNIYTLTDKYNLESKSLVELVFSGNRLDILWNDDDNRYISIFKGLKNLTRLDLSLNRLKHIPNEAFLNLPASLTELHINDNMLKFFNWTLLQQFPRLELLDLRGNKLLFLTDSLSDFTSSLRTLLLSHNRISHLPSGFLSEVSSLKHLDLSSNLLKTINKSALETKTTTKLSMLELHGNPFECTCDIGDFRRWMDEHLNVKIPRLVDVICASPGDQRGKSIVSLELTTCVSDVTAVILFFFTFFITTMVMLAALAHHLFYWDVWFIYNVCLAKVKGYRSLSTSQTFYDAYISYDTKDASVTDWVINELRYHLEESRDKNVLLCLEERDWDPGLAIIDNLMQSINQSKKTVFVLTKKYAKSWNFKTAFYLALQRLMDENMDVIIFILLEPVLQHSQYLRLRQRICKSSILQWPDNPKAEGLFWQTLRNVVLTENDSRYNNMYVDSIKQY
How it was run: as §1

human TLR7 = molecular target: T3, human TLR7 (Homo sapiens, UniProt Q9NYK1); assay: TLR7 inhibition reporter assay (HEK-Blue cells, SEAP reporter, gardiquimod stimulation); settings: HEK-Blue cells overexpressing human TLR7, SEAP reporter, gardiquimod 7.5 μM; read-out: TLR7 IC50
T3 construct: host or cells: HEK-Blue cells
T3 sequence (Q9NYK1 27-1049): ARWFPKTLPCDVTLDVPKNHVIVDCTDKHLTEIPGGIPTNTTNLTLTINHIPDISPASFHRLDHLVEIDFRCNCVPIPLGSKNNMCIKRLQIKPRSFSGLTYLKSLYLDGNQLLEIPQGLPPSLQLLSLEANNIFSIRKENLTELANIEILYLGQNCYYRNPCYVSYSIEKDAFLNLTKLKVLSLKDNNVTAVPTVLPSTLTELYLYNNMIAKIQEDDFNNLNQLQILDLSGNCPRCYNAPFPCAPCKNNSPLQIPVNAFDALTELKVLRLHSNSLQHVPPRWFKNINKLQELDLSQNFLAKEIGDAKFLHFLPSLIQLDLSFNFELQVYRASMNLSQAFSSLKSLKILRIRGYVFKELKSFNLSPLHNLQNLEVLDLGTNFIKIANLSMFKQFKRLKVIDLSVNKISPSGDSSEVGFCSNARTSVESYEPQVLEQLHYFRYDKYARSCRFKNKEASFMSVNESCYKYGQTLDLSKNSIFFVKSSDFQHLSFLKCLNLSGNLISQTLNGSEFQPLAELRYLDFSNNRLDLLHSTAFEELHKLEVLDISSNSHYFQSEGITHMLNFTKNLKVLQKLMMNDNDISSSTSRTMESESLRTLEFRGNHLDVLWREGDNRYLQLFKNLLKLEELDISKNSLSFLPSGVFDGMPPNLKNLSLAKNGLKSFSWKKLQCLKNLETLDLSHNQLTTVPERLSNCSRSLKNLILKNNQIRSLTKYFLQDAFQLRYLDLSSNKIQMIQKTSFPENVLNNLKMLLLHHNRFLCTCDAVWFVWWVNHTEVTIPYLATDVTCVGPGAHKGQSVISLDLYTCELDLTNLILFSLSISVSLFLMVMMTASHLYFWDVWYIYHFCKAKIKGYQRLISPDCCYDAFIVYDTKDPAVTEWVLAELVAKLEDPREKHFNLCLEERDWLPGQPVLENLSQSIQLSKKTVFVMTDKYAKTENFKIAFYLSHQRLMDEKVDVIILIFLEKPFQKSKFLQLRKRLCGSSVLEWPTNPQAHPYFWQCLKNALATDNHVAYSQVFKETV
How it was run: as §1

SMILES | IC50 (human TLR9) [nM] | IC50 (human TLR8) [nM] | IC50 (human TLR7) [nM]
CNC(=O)CN1C[C@H](C)N(c2nc3c(C(C)C)c(-c4cn5ncnc5c(C)c4C)[nH]c3s2)C[C@H]1C [Example 336, 2-((2R,5S)-4-(5-(7,8-dimethyl-[1,2,4]triazolo[1,5-a]pyridin-6-yl)-6-isopropyl-4H-pyrrolo[3,2-d]thiazol-2-yl)-2,5-dimethylpiperazin-1-yl)-N-methylacetamide] | 38100 | 39.7 | 13.5
Cc1c(-c2[nH]c3sc(N4C[C@@H](C)N(CCS(C)(=O)=O)C[C@@H]4C)nc3c2C(C)C)cn2ncnc2c1C [Example 337, 2-((2S,5R)-2,5-dimethyl-4-(2-(methylsulfonyl)ethyl)piperazin-1-yl)-5-(7,8-dimethyl-[1,2,4]triazolo[1,5-a]pyridin-6-yl)-6-isopropyl-4H-pyrrolo[3,2-d]thiazole] | 42400 | 7.61 | 8.27
Cc1c(-c2[nH]c3sc(N4C[C@@H](C)N(CC(N)=O)C[C@@H]4C)nc3c2C(C)C)cn2ncnc2c1C [Example 338, 2-((2R,5S)-4-(5-(7,8-dimethyl-[1,2,4]triazolo[1,5-a]pyridin-6-yl)-6-isopropyl-4H-pyrrolo[3,2-d]thiazol-2-yl)-2,5-dimethylpiperazin-1-yl)acetamide] | 45600 | 31.1 | 10.1
Cc1c(-c2[nH]c3sc(N4C[C@@H](C)N(CC(C)(C)O)C[C@@H]4C)nc3c2C(C)C)cn2ncnc2c1C [Example 339, 1-((2R,5S)-4-(5-(7,8-dimethyl-[1,2,4]triazolo[1,5-a]pyridin-6-yl)-6-isopropyl-4H-pyrrolo[3,2-d]thiazol-2-yl)-2,5-dimethylpiperazin-1-yl)-2-methylpropan-2-ol] | 36600 | 3.86 | 19.9
CNCC(=O)N1C[C@H](C)N(c2nc3c(C(C)C)c(-c4cn5ncnc5c(C)c4C)[nH]c3s2)C[C@H]1C [Example 340, 1-((2R,5S)-4-(5-(7,8-dimethyl-[1,2,4]triazolo[1,5-a]pyridin-6-yl)-6-isopropyl-4H-pyrrolo[3,2-d]thiazol-2-yl)-2,5-dimethylpiperazin-1-yl)-2-(methylamino)ethan-1-one] | 5220 | 3.38 | 4.64
Cc1c(-c2[nH]c3sc(N4C[C@@H](C)N(C(=O)CN(C)C)C[C@@H]4C)nc3c2C(C)C)cn2ncnc2c1C [Example 341, 1-((2R,5S)-4-(5-(7,8-dimethyl-[1,2,4]triazolo[1,5-a]pyridin-6-yl)-6-isopropyl-4H-pyrrolo[3,2-d]thiazol-2-yl)-2,5-dimethylpiperazin-1-yl)-2-(dimethylamino) ethan-1-one] | 16500 | 9 | 7.86
Cc1c(-c2[nH]c3sc(N4CCN(C(=O)CN(C)C)C[C@@H]4C)nc3c2C(C)C)cn2ncnc2c1C [Example 346, (S)-1-(4-(5-(7,8-dimethyl-[1,2,4]triazolo[1,5-a]pyridin-6-yl)-6-isopropyl-4H-pyrrolo[3,2-d]thiazol-2-yl)-3-methylpiperazin-1-yl)-2-(dimethylamino)ethan-1-one] | 19200 | 7.94 | 6.3
Cc1c(-c2[nH]c3sc(N4CCN(C5CCOCC5)C[C@@H]4C)nc3c2C(C)C)cn2ncnc2c1C [Example 350, (S)-5-(7,8-dimethyl-[1,2,4]triazolo[1,5-a]pyridin-6-yl)-6-isopropyl-2-(2-methyl-4-(tetrahydro-2H-pyran-4-yl)piperazin-1-yl)-4H-pyrrolo[3,2-d]thiazole] | 21700 | 0.12 | 8.11
Cc1c(-c2[nH]c3sc(N4CCN(C(C)C)C[C@@H]4C)nc3c2C(C)C)cn2ncnc2c1C [Example 351, (S)-5-(7,8-dimethyl-[1,2,4]triazolo[1,5-a]pyridin-6-yl)-6-isopropyl-2-(4-isopropyl-2-methylpiperazin-1-yl)-4H-pyrrolo[3,2-d]thiazole] | 19800 | 0.98 | 8.23
Cc1c(-c2[nH]c3sc(N4CCN(CC5CC5)C[C@@H]4C)nc3c2C(C)C)cn2ncnc2c1C [Example 352, (S)-2-(4-(cyclopropylmethyl)-2-methylpiperazin-1-yl)-5-(7,8-dimethyl-[1,2,4]triazolo[1,5-a]pyridin-6-yl)-6-isopropyl-4H-pyrrolo[3,2-d]thiazole] | 24500 | 1.09 | 14.4
Cc1cc(-c2[nH]c3sc(N4CCN(C(C)C)C[C@H]4C)nc3c2C(C)C)cn2ncnc12 [Example 366, (R)-6-isopropyl-2-(4-isopropyl-2-methylpiperazin-1-yl)-5-(8-methyl-[1,2,4]triazolo[1,5-a]pyridin-6-yl)-4H-pyrrolo[3,2-d] thiazole] | 6260 | > 3130 | > 3130
